The values that follow come from patent US9867375B2, “Methods of pest control in soybean” (Syngenta Participations AG, priority 2012, dated 2018).

For one assay, the system named is Euschistus heros. The assay is described as follows: Euschistus heros (Neotropical brown stink bug) contact/feeding activity on sprayed soybean plants. To be noted: Euschistus heros, 120 h, 50 ppm; sprayed 2 week old soybean plants, 10 N-2 nymphs; evaluation 5 days after infestation on mortality and growth effects. The format is in vivo. The protocol:
Euschistus heros (Neotropical brown stink bug) (contact/feeding activity) 2 week old soybean plants are sprayed in a turn table spray chamber with the diluted spray solutions. After drying, 2 soybean seeds are added and plants are infested with 10 N-2 nymphs of the neotropical brown stink bug Euschistus heros in plastic test boxes. Boxes are incubated in a climate chamber at 25° C. and 60% RH. Evaluation is done 5 days after infestation on mortality and growth effects.
For the molecule `CC(C)C(=O)NCc1ccc(C2=NOC(c3cc(Cl)cc(Cl)c3)(C(F)(F)F)C2)cc1Cl` (stereo not drawn) [Compound A2], the pest or weed control at 50 ppm is not below 50%.
Regarding `CC(=O)NCc1ccc(N2CCC(c3cc(Cl)cc(Cl)c3)(C(F)(F)F)C2)cc1C` (stereo not drawn) [Compound A4, N-{4-[3-(3,5-dichlorophenyl)-3-(trifluoromethyl)pyrrolidin1-yl]-2-methyl-benzyl)acetamide], the pest or weed control at 50 ppm is not below 50%.
On the same count and under the same terms, in the case of `CC(=O)NCc1ccc(C2=NCC(c3cc(Cl)cc(Cl)c3)(C(F)(F)F)C2)cc1Br` (stereo not drawn) [Compound A5, N-{2-bromo-4-[4-(3,5-dichlorophenyl)-4-trifluoromethyl-4,5-dihydro-3H-pyrrol-2yl]-benzyl}acetamide] it was not below 50%.

Staying with this assay, now noted: low application rates; sprayed soybean plants, N-2 nymphs.
With `N#Cc1cc(C2=NCC(c3cc(Cl)c(Cl)c(Cl)c3)(C(F)(F)F)C2)ccc1-n1cncn1` (stereo not drawn) [Compound C2, 2-(1,2,4-triazol-1-yl)-5-[3-(3,4,5-trichlorophenyl)-3-(trifluoromethyl)-2,4-dihydropyrrol-5-yl]benzonitrile], the “control at low application rates” value is listed as “excellent control”.
For the molecule `N#Cc1cc(C2=NOC(c3cc(Cl)c(F)c(Cl)c3)(C(F)(F)F)C2)ccc1-n1cncn1` (stereo not drawn) [Compound C3], the “control at low application rates” value is “excellent control”.
In the case of `N#Cc1cnn(-c2ccc(C3=NOC(c4cc(Cl)c(F)c(Cl)c4)(C(F)(F)F)C3)cc2C#N)c1` (stereo not drawn) [Compound D1], the “control at low application rates” value is “excellent control”.
